Data from patent publication US20210302318A1, “MEANS AND METHOD FOR THE REAL-TIME ANALYSIS OF HARVESTED CROPS” (THE STATE OF ISRAEL, MINISTRY OF AGRICULTURE & RURAL …, priority 2018, published 2021).

Test system: insects in wheat
Test: Monitoring efficiency of Deltamethrin pest control treatment in wheat with the TV1061 sensor
Format: in vivo
Conditions: FIG. 13
Procedure: Reference is now made to FIG. 13 showing monitoring efficiency of Deltamethrin pest control treatment in wheat. To determinate system capability to test the efficiency of the pest control treatments, infected and clean wheat were treated with Deltamethrin. Then, sensor (with TV1061 strain) was placed into the treated chambers. […] Deltamethrin is not effective against eggs inside the wheat. Therefore insects inside wheat (in eggs) will be destroyed at the time when they will hatch and walk out. […] Then decreasing in the sensor responses to the background levels may be explained by killing these insects by Deltamethrin residues on the wheat.

`CC1(C)[C@H](C(=O)O[C@H](C#N)c2cccc(Oc3ccccc3)c2)[C@@H]1C=C(Br)Br` [Deltamethrin] was tested, and the “effectiveness against eggs inside the wheat” value (eggs inside the wheat, sensor response increased on the third day after sanitization) was “not effective” and the “pest control efficiency (insects in infected wheat)” value (infected and clean wheat treated, inferred from similar TV1061 sensor responses in infected and uninfected sample) was “all insects were destroyed”.
